This is an account of results in paper PMC6010091, “Inhibition of the β-carbonic anhydrase from the dandruff-producing fungus Malassezia globosa with monothiocarbamates” (Journal of Enzyme Inhibition and Medicinal Chemistry, 2017).

The assay has as its target T1, MgCA (Malassezia globosa, UniProt A8Q1N3).
T1 construct: gene MGL_1814; recombinant, purified; dimer in the homology model; Zn ligands C47, H103, C106
T1 sequence (A8Q1N3 1-241): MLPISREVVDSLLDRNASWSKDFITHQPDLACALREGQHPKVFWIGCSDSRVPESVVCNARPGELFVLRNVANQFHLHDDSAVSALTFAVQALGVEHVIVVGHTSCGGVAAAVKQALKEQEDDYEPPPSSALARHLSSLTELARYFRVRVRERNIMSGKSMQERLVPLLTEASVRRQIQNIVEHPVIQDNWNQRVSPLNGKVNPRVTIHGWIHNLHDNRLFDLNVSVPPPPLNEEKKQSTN
Put plainly: stopped-flow CO2 hydration assay, Cheng-Prusoff. In kind it is biochemical.

The term Ki denotes a measure of affinity in units of concentration, obtained from inhibition or displacement. Higher therefore signals a looser hold on the target. Compound `CCCN(CCC)C(=O)S` [compound 4, 4] gave an inhibition constant Ki of 1.85 µM. As for `O=C(S)N1CCN(c2ccc(C(F)(F)F)cc2)CC1` [compound 13, 13], the Ki was 4.22 µM. Compound `CN(Cc1ccccc1)C(=O)S` [compound 9, 9] displayed a Ki of 7.61 µM. Turning to `CCCCN(CCCC)C(=O)S` [compound 5, 5], affinity was put at a Ki of 7.52 µM.

On to `CC(C)CN(CC(C)C)C(=O)S` [compound 6, 6], for which the Ki turned out to be 8.61 µM. With `S=C(S)SCc1ccccc1` [compound 16, 16], the affinity corresponds to a Ki of 8.12 µM. This Ki and that of the compound before are within 1.5-fold of each other.

`O=C(CN1CCN(C(=O)S)CC1)NC1CCCCC1` [compound 15, 15] registered a Ki of 6.13 µM. `CCCCN(CC)C(=O)S` [compound 7, 7] returned a Ki of 5.26 µM. The compound `O=C(S)N1CCOCC1` [compound 10, 10] returned a Ki of 7.65 µM. In turn, `O=C(S)N1CCN(c2cccc(Cl)c2)CC1` [compound 14, 14] had a Ki of 15.9 µM. Consider `O=C(S)N1CCNCC1` [compound 11, 11], for which the affinity, expressed as Ki, was 7.41 µM. This Ki lies about 2.1-fold lower than the previous one.

The compound `S=C(S)OCCc1ccccc1` [compound 17, 17] registered a Ki of 16.2 µM. `O=C(S)N1CCN(c2ccc(F)cc2)CC1` [compound 12, 12] came in with a Ki of 8.33 µM.
